From PubChem BioAssay (NCI) come the findings set out here.

Test systems include PC-3 prostate; T-47D breast; UACC-62 melanoma; MOLT-4 leukemia; DU-145 prostate; NCI-H23 lung; RXF 393 renal; SK-MEL-28 melanoma; HCT-15 colon; SR leukemia.
Common to all, as to test: DTP human tumour cell line panel, 48 h

“And” between values parts separate entries of the source, which are not always exact repeats. Identical values can stand only once.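 1) Cells in 96-well plates. 2) Compound, 48 h, 5 concentrations. 3) Linear interpolation between surrounding doses. 4) Unreached endpoint = highest concentration. Here, GI50 denotes the concentration required for 50% inhibition of growth. TGI is the concentration that stops growth completely.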

Turning to `CN(C)CCCNC(=O)c1cc(NC(=O)c2cc(NC(=O)CCc3c[nH]c4ccccc34)cn2C)cn1C`, the GI50 with PC-3 prostate, in the test with T-47D breast, in the test with UACC-62 melanoma, with MOLT-4 leukemia, with DU-145 prostate and in the test on NCI-H23 lung was over 100000 nM throughout. Moreover, the GI50 with RXF 393 renal, with SK-MEL-28 melanoma and with HCT-15 colon was over 100000 nM in each case. For the same compound, the TGI with PC-3 prostate, in the test with T-47D breast, in the test with UACC-62 melanoma, in the test with MOLT-4 leukemia, in the test on DU-145 prostate and with NCI-H23 lung was over 100000 nM each time. Further, the TGI with RXF 393 renal, in the test with SK-MEL-28 melanoma and with HCT-15 colon was over 100000 nM each time.

With `CN[C@H]1C=C[C@@H]2/C=C(C)/C=C/[C@@H](C)[C@H]([C@H](C)[C@H](O)[C@@H](C)NC(C)=O)OC(=O)/C=C/C=C(C)\C=C\[C@]2(C)C1`, the GI50 (commonly the concentration at which growth is held to half of that of the control) in the test on PC-3 prostate was 4.9 nM; in the test on T-47D breast, < 1 nM and 4.9 nM; in the test on UACC-62 melanoma, 22 nM; in the test on SR leukemia, < 1 nM and 4.9 nM; in the test with MOLT-4 leukemia it was 16600 nM; in the test with NCI-H23 lung, 68.7 nM and 37.6 nM. Besides, the GI50 in the test with RXF 393 renal is < 1 nM and 6.74 nM; with SK-MEL-28 melanoma, 8.98 nM; in the test on HCT-15 colon it was 90.6 nM and 81.4 nM. For the same compound, the TGI (in general, the concentration giving total growth inhibition) is over 49000 nM in the test on PC-3 prostate; over 49000 nM in the test on T-47D breast; 19700 nM in the test with UACC-62 melanoma; over 49000 nM in the test with SR leukemia; over 49000 nM with MOLT-4 leukemia; over 49000 nM in the test on DU-145 prostate. The TGI in the test on NCI-H23 lung is over 49000 nM; with RXF 393 renal, 28700 nM; with SK-MEL-28 melanoma, 33600 nM; in the test with HCT-15 colon it was over 49000 nM.

Consider `FC(F)c1nc2ccccc2n1-c1nc(N2CCOCC2)nc(N2CCOCC2)n1`, for which the GI50 in the test with PC-3 prostate is 72.2 nM and 113 nM; in the test with T-47D breast, 50.2 nM and 110 nM; in the test on UACC-62 melanoma, 75.2 nM and 233 nM; in the test on SR leukemia, 686 nM and 578 nM; in the test with MOLT-4 leukemia, 347 nM; in the test with DU-145 prostate, 420 nM and 432 nM. For the same compound, the GI50 is 492 nM and 617 nM in the test on NCI-H23 lung; 96.4 nM and 138 nM in the test with RXF 393 renal; 174 nM and 244 nM with SK-MEL-28 melanoma; 389 nM and 479 nM with HCT-15 colon. In addition, the TGI was 388 nM and 565 nM with T-47D breast; 860 nM and 1940 nM in the test with UACC-62 melanoma; over 100000 nM in the test with SR leukemia; over 100000 nM in the test with MOLT-4 leukemia; over 100000 nM in the test with DU-145 prostate; 625 nM and 674 nM in the test with RXF 393 renal. Also, the TGI in the test with SK-MEL-28 melanoma was 1870 nM and 3790 nM; with HCT-15 colon, over 100000 nM.

In the case of `COc1cc(-c2cc3ncccc3c3nc(N)c4cccnc4c23)cc(OC)c1OC`, the GI50 in the test on PC-3 prostate is 579 nM; in the test with T-47D breast it was 824 nM; in the test with UACC-62 melanoma, 358 nM; in the test with SR leukemia, 124 nM; in the test on MOLT-4 leukemia, 604 nM; in the test on DU-145 prostate, 487 nM. For the same compound, the GI50 in the test on NCI-H23 lung was 1280 nM; in the test with RXF 393 renal, 742 nM; with SK-MEL-28 melanoma, 2930 nM; with HCT-15 colon, 440 nM. Besides, the TGI was over 100000 nM in the test with PC-3 prostate; 32000 nM with T-47D breast; 19400 nM with UACC-62 melanoma; 4970 nM with SR leukemia; 8050 nM with MOLT-4 leukemia; 3130 nM in the test with DU-145 prostate. The TGI in the test on NCI-H23 lung was 51200 nM; in the test with RXF 393 renal, 6480 nM; in the test with SK-MEL-28 melanoma, over 100000 nM; with HCT-15 colon, 61900 nM.

Take `CC(=O)O[C@H]1CC[C@@]2(C)C(=CC[C@H]3[C@@H]4CC[C@H](c5cc(C(F)(F)F)n(C(C)=O)n5)[C@@]4(C)CC[C@@H]32)C1`: the TGI in the test with PC-3 prostate worked out at 16000 nM; with T-47D breast, 25000 nM; in the test with UACC-62 melanoma, 24500 nM; with SR leukemia it was 14800 nM; with MOLT-4 leukemia it was 8390 nM; in the test with DU-145 prostate, 23500 nM. Besides, the TGI in the test on NCI-H23 lung was 28600 nM; with RXF 393 renal, 17800 nM; in the test on SK-MEL-28 melanoma, 28900 nM; in the test with HCT-15 colon, 21800 nM.

Take `COC(=O)c1c2c(c[n+]([O-])c1C)C(=O)C=CC2=O`: the GI50 was 4340 nM in the test on PC-3 prostate; 2330 nM with T-47D breast; 1810 nM in the test on UACC-62 melanoma; 2720 nM in the test with SR leukemia; 2430 nM in the test on MOLT-4 leukemia; 1850 nM in the test with DU-145 prostate. Besides, the results for the GI50 with NCI-H23 lung, in the test with SK-MEL-28 melanoma and in the test on HCT-15 colon were 1880 nM, 2140 nM and 1780 nM, respectively. Further, the TGI was 55100 nM in the test on PC-3 prostate; 6850 nM in the test on T-47D breast; 3400 nM in the test with UACC-62 melanoma; over 100000 nM with SR leukemia; 6210 nM in the test with MOLT-4 leukemia; 3540 nM in the test with DU-145 prostate. Further, the TGI with NCI-H23 lung turned out to be 4260 nM; in the test on SK-MEL-28 melanoma, 3970 nM; in the test on HCT-15 colon it was 3510 nM.

Regarding `COc1ccc(-c2cc(=O)c3ccc(C)nc3[nH]2)cc1`, the GI50 in the test with PC-3 prostate was over 100000 nM. The TGI with PC-3 prostate, in the test on T-47D breast, in the test with UACC-62 melanoma, in the test with MOLT-4 leukemia, with DU-145 prostate and in the test on NCI-H23 lung was over 100000 nM in each case. Further, the TGI in the test on RXF 393 renal, with SK-MEL-28 melanoma and in the test on HCT-15 colon was over 100000 nM throughout.

For the compound `C=C(C)C(=O)O[C@H]1C[C@@]23O[C@@H]2CCC(=C[C@H]2OC(=O)C(=C)[C@H]12)COC3O` (stereo not given in full), the TGI was over 100000 nM in the test with PC-3 prostate; over 100000 nM in the test on T-47D breast; over 100000 nM with UACC-62 melanoma; 95100 nM in the test with SR leukemia; 92200 nM in the test on MOLT-4 leukemia; over 100000 nM with DU-145 prostate. Further, the concentration for total growth inhibition (TGI) in the test on NCI-H23 lung is over 100000 nM; with RXF 393 renal it was 89600 nM; in the test with HCT-15 colon, 43500 nM.

As for `CO[C@H]1/C=C/O[C@@]2(C)Oc3c(C)c(O)c4c(c3C2=O)C(=O)C(/C=N/N(c2ccccc2)c2ccccc2)=C(NC(=O)/C(C)=C\C=C\[C@H](C)[C@H](O)[C@@H](C)[C@@H](O)[C@@H](C)[C@H](OC(C)=O)[C@@H]1C)C4=O`, the GI50 with PC-3 prostate was 1320 nM; in the test on T-47D breast, 1840 nM; with UACC-62 melanoma, 1510 nM; with SR leukemia, 2430 nM; with MOLT-4 leukemia, 1850 nM; in the test with DU-145 prostate, 1930 nM. Also, the GI50 in the test on NCI-H23 lung is 2440 nM; in the test with SK-MEL-28 melanoma it was 1710 nM; in the test on HCT-15 colon it was 1630 nM. The TGI in the test on PC-3 prostate came to 2820 nM; in the test with T-47D breast it was 3850 nM; in the test with UACC-62 melanoma it was 2920 nM; in the test on SR leukemia, 5770 nM; in the test on MOLT-4 leukemia it was 6070 nM; in the test on DU-145 prostate, 3510 nM. The TGI with NCI-H23 lung stood at 5100 nM; in the test on SK-MEL-28 melanoma, 3360 nM; in the test on HCT-15 colon, 3400 nM.
